Laboratory results taken from patent US10961180B2, “Branched trialkyl amine oxides” (Eastman Chemical Company, priority 2018, dated 2021).

Experiments:
[1] = Salt thickening: viscosity of SLS/SLES/amine oxide formulation vs NaCl content; assay type: physicochemical; settings: 1.4% amine oxide, 4.3% SLS, 4.3% SLES, shear rate 3/s
Description: The viscosity (cP; shear rate 3/s) of a simple formulation was measured as the salt concentration varied from 0 to 5 wt %.

[2] = Stain removal in cold water, swatch brightness, simple laundry liquid; settings: 0.05% active additive, compared to LAO
Description: Amine oxides with linear and branched hydrophobes were compared in a screen for stain removal in cold water. Simple laundry liquid formulations were made that included only surfactants and builder.
Standard stain swatches were purchased from Testfabrics, Inc. (West Pittston, Pa.). […] The swatches were pre-cut into 2 inch squares. The test formulation was diluted with DI water to 0.06% total surfactant to make the wash solution. Additives were added at a final concentration of 0.05% active in the wash solution. Stained fabric swatches were added to the wash solution, washed and rinsed at 20° C., and air-dried. The average swatch brightness (L*) for each treatment, and standard deviation, are reported for 3 replicates.

zein protein = system: zein protein; parameters: species or system corn; settings: 1% surfactant solution, 30 C, 30 min, triplicate
Description: For the test, 0.0750 g of zein protein is transferred into a 1.5 mL centrifuge tube. To this 1.5 mL of 1% surfactant solution is added, mixed, and placed in a 30 C incubator with mild stirring for 30 minutes. After 30 minutes has elapsed, the tube is centrifuged for 30 min at 3600 rpm. The solution is filtered through a pre-weighed 8 micron filter paper, and then dried overnight in a 50° C. oven. The insoluble zein residue is then weighed and the wt % Zein dissolved is calculated using the equation below. Each solution is analyzed in triplicate. The Zein score is normalized to a standard included in each set of tests, in this case LAE10; (% zein dissolved=(total zein added−total zein after drying÷Total zein added)×100).

[3] = Draves Wetting Test (ASTM D2281-68), wet-out time; assay type: physicochemical; settings: 0.05 wt % actives in DI water, average of 3
Description: The surface wetting ability of the amine oxides with linear and branched hydrophobes from Examples 43 to 45 were compared using the Draves Wetting Test (ASTM D2281-68). A 0.05 wt % (actives basis) solution of amine oxide in deionized (DI) water was used to determine the Draves wet-out time (WOT) in seconds. 0.75 g of surfactant was dispersed in 1,500 ml of DI water. The wet-out time (WOT) in seconds is recorded in Table 7 (average of 3 measurements). LAO is Lauramine oxide (linear hydrophobe), Sigma catalog number 40236.

[4] = Foam height, high shear (Waring blender) in deionized water; assay type: physicochemical; settings: for Foam volume (ml) 5 min / Foam volume (ml) Initial: 0.05 wt % in deionized water; for Foam volume (ml) 5 min: after 5 min; for Foam volume (ml) Initial: blended High 30 s
Description: The surface foam volume and persistence of the amine oxides with linear and branched hydrophobes from Examples 43 and 44 were compared. A 0.05 wt % (actives basis) solution of the test surfactant was made in deionized water. 250 ml of the test solution was added the beaker of a Waring blender, capped, and then blended on High for 30 seconds and immediately transferred to a 1 L graduated cylinder. The total volume of foam plus liquid, as well as the liquid layer alone was recorded. The foam and liquid volumes were recorded again after 5 minutes.

[5] = Foaming in diluted commercial laundry liquid (Persil Original), Waring blender; assay type: physicochemical; settings: for Difference: initial minus 5 min
Description: The surface foam volume and foam persistence of solutions of the amine oxides with linear and branched hydrophobes from Examples 25 and 26 were compared. A commercial laundry liquid was diluted in deionized water according to the dosing instructions; 4.2 ml/L Persil Original. The diluted detergent was supplemented with 0%, 2%, 5% (based on wt laundry liquid) of LAO or Branched C12 AO,(2,4-diethyl-N,N-dimethyloctan-1-amine oxide, Example 66), and the solutions mixed briefly and used immediately. 250 ml of each test solution was added the beaker of a Waring blender, capped, and then blended on High for 30 seconds and immediately transferred to a 1 L graduated cylinder. The total volume of foam plus liquid, as well as the liquid layer alone was recorded. The foam and liquid volumes were recorded again after 5 minutes. All tests were performed in triplicate.

## CCCCC(CC)CC(C)C[N+](C)(C)[O-] (centres unmarked) [Example 43, 4-ethyl-N,N-2-trimethyloctan-1-amine oxide]
[1]; NaCl 0.5 wt %
  Viscosity: 7 cP
[1]; NaCl 1.0 wt %
  Viscosity: 36 cP
[1]; NaCl 4.0 wt %
  Viscosity: 670 cP
[2]
  Foam in the wash solution: very little foam

## Alkylpolyglucoside [APG]
Zein protein
  Zein score - normalized to LAE10: 0.586

## 4-ethyl-N,N-2-trimethyloctan-1-amine oxide [Example 43]
[3]
  Wet out time: >300 s
[4]
  Foam volume (ml) 5 min: 0 mL
  Foam volume (ml) Initial: 267 mL
[4]; foam volume, initial to 5 min
  % decrease: 100%

## Linear alkylbenzene sulfonate [LABS]
Zein protein
  Zein score - normalized to LAE10: 4.670

## CCCCCCCCCCCC[N+](C)(C)[O-] [LAO, N,N-dimethyl laurylamine oxide, reference compound]
[3]
  Wet out time: 33 s
[1]; NaCl 0.5 wt %
  Viscosity: 2 cP
[1]; NaCl 1.0 wt %
  Viscosity: 11 cP
[5]; Persil + 2% amine oxide
  Difference: 54 mL
[5]; Persil + 5% amine oxide
  Difference: 6 mL
[4]
  Foam volume (ml) 5 min: 500 mL

## CCCCC(CC)CC(CC)C[N+](C)(C)[O-] (centres unmarked) [Example 44, 2,4-diethyl-N,N-dimethyloctan-1-amine oxide]
[3]
  Wet out time: >300 s
[5]; Persil Original 4.2 ml/L + 2% amine oxide (on wt laundry liquid)
  Initial foam volume: 560 mL
[5]; Persil + 2% amine oxide
  Difference: 257 mL
[5]; Persil + 5% amine oxide
  Difference: 280 mL
Zein protein
  Zein score - normalized to LAE10: 0.018
[4]
  Foam volume (ml) 5 min: 0 mL
  Foam volume (ml) Initial: 370 mL
